Experimental findings from US7745402B2, “Method of treating pancreatitis” (Lundbeck Inc., priority 2005, dated 2010) are described below.

This assay deals with HO-1. In words: HO-1 immunoblot of mouse tissue/cell homogenates after hemin. Format: in vivo, mice. The note with it: for HO-1 induction: hemin 3× during 7 d. How it is done: (A, B) Total tissue homogenates were obtained from pancreata of caerulein-injected or choline deficient diet (CDD)-fed mice. Two age and sex-matched mice were used for each time point. Homogenates were tested by blotting using antibodies to HO-1 or HO-2. (C) Mice (3 mice/condition) were given hemin by intraperitoneal injection (4× during one week, or 8× during two weeks). Two “control” mice were injected with vehicle alone. Pancreatic homogenates were then obtained and blotted with anti-HO-1/2. (D-F) Mice were injected with saline, hemin, or vehicle (8 mice/group)3×(arrows) followed by feeding with CDD for 3 d then harvesting of the pancreata. HO-1 and HO-2 were analyzed by blotting of pancreatic homogenates (3 mice/group). […] A representative hematoxylin and eosin staining of pancreata from mice that survived CDD feeding is shown (scale bar=50 μM).
FIG. 8: HO-1 expression and hemin-mediated induction in mouse tissues and cells. Mice were injected 3× during 7d with vehicle or hemin (2 mice/group) followed by harvesting of the indicated organs and cells then preparation of total tissue/cell homogenates. Protein concentrations of the homogenates were measured followed by SDS-PAGE separation (40 μg of protein/lane) then blotting using anti-HO-1 antibodies.
Hemin, vehicle and antibodies. […]
Animal procedures. […] Immunofluorescence staining was performed as described (29) and images were analyzed using confocal microscopy. Total tissue lysates were prepared by homogenization in Laemmli sample buffer and analyzed by SDS-PAGE followed by transfer to membranes for blotting and protein visualization by enhanced chemiluminescence. Trypsin activity was determined using a fluorimetric assay and the substrate Boc-Gln-Ala-Arg-MCA (Peptides International Inc.; Louisville, Ky.), and comparison to a standard curve generated with purified trypsin as described. […] Lung injury after caerulein administration was assessed as previously described, based on neutrophilic infiltration, pulmonary edema, alveolar distension and collapse. […]
Background: A western blot detects proteins with antibodies after separation by electrophoresis.

On to Hemin, for which the HO-1 induction result was “not in bone marrow, spleen or brain” (bone marrow, spleen, brain); “induction of HO-1 in peritoneal cells, liver, pancreas and colon (most prominent change being in pancreas)” (peritoneal cells, liver, pancreas and colon). For the same substance, the “level of HO-1 induction on excessive dosing” value (pancreas, 8× during two weeks vs 4× during one week (FIG. 1C)) is “excessive dosing decreases the level of HO-1 induction”.
